Measured values from US20050118290A1, “Compositions and method for treatment of steroid/nuclear receptor-mediated diseases” (University of Singapore, priority 2003, published 2005).
Values after ≈ are worked out from the molar mass of the structure shown. Blank lines part the entries; values can stand above or below the compound they belong to.

Columns and labels:
Type in all cases: cell-based
[1] = target: T1, Progesterone Receptor (Homo sapiens, UniProt P06401); assay: PR (ARE)2-Luc luciferase reporter gene assay; settings: Example 16; progesterone 100×10^−9M, 10 × 10^−9M (Table 11)
T1 construct: expressed in transfected cells; host or cells: HeLa (named for the formononetin and daidzein experiments)
T1 sequence (P06401 1-933): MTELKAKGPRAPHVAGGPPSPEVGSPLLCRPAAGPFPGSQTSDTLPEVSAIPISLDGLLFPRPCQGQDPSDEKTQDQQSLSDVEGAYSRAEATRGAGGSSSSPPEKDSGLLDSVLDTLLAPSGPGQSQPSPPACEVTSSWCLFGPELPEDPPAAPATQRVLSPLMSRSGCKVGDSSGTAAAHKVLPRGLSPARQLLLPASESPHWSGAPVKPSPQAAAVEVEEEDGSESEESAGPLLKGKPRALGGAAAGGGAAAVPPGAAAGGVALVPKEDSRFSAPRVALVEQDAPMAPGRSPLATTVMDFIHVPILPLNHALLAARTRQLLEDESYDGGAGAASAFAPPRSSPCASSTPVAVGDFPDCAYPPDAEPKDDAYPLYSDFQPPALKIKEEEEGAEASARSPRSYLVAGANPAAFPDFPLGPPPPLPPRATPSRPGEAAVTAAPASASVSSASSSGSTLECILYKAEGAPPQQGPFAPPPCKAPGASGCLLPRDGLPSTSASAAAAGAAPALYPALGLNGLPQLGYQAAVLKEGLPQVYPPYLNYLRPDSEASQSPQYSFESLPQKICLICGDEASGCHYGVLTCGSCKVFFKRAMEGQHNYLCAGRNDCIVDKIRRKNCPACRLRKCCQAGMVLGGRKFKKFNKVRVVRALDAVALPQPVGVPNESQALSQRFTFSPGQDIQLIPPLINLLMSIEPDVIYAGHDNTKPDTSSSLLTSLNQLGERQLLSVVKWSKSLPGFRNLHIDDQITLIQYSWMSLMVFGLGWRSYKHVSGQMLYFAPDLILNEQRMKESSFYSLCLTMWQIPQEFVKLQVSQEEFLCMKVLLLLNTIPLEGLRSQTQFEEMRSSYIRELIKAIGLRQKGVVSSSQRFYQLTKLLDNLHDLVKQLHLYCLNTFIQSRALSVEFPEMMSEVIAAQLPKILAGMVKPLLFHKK
Method: (§1) The capacity of HQ extract to activate other steroid receptors, namely AR, PR, GR, ERα and ERβ was examined. […] The (ARE)2-Luc plasmid consist of two repeats of Androgen Response Element (ARE) cloned upstream of the Luciferase Reporter gene in a pGL3-Basic vector (Promega).
(§2) AR, PR, GR and ERα and […] were determined by comparing luciferase activity in test cells with control cells exposed to vehicle (i.e., ethanol or methanol) only, analogous to the determination of PPAR activity as described in the previous examples.

[2] = target: T2, PPARα (Homo sapiens, UniProt Q07869); assay: Chimeric Gal4DBD-PPARαLBD receptor / UASg-luciferase reporter gene assay in HeLa cells; settings: with WY14643 30×10^−6M
T2 construct: expressed in transfected cells; host or cells: HeLa
T2 sequence (Q07869 239-466 limits assumed): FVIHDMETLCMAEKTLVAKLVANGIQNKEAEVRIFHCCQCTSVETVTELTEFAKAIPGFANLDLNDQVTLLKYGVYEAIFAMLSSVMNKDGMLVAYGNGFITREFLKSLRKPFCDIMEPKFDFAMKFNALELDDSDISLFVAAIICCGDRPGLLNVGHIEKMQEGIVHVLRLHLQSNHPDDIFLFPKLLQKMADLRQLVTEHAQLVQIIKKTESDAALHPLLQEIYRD
From the text: (§3) In an example of such a reporter gene assay, a plasmid containing chimeric Ga14DBD-PPARLBD receptor cDNA was constructed by excising the ligand binding domain (LBD) of full length PPARγ and PPARα and ligating the resulting fragments in frame to the Ga14-DNA binding domain (DBD) of Saccharomyces cerevisiae in a pM vector (Clontech). Specifically, to construct Ga14DBD-PPARγLBD plasmid, pSG5 expression vector (Stratagene) containing full length PPARγ was excised with Rsa I and blunt ligated to Hind III site of pMGa14DBD expression plasmid (Clontech). To construct Ga14DBD-PPARαLBD plasmid, pSG5 expression vector (Stratagene) containing full length PPARα was excised with BstU I and BamH I and blunt-end ligated in frame to BamH I site of pMGa14DBD expression plasmid (Clontech). […] Ga14 DBD binds very strongly to the exogenous UASg promoter, thereby giving rise to a sensitive and specific assay. To measure PPARγ and PPARα agonist activity, HeLa cells were grown in 24-well microtiter plates and then transiently co-transfected with the two plasmids (chimeric PPAR receptor and UASg reporter gene) using Lipofectamine (Invitrogen). […] Concurrently, cells exposed to known PPAR ligands served as positive controls. Replicate wells, exposed to the vehicle solvent (i.e., ethanol or methanol) in which herbal extracts were dissolved, were used as negative controls. After the 40 hr incubation period, cells were rinsed with phosphate buffered saline (PBS), lysis buffer was added, and cell lysates were collected for measurement of luciferase activity using a luminometer. […] All data points are in triplicate. The data points represent the mean of triplicate wells. Luciferase activity in such an assay accurately reflects the activity of any ligands on PPARγ or PPARα.

[3] = target: T3, human androgen receptor (Homo sapiens, UniProt P10275); assay: AR (ARE)2-Luc luciferase reporter gene assay in HeLa cells
T3 construct: expressed in transfected cells; host or cells: HeLa
T3 sequence (P10275 1-920): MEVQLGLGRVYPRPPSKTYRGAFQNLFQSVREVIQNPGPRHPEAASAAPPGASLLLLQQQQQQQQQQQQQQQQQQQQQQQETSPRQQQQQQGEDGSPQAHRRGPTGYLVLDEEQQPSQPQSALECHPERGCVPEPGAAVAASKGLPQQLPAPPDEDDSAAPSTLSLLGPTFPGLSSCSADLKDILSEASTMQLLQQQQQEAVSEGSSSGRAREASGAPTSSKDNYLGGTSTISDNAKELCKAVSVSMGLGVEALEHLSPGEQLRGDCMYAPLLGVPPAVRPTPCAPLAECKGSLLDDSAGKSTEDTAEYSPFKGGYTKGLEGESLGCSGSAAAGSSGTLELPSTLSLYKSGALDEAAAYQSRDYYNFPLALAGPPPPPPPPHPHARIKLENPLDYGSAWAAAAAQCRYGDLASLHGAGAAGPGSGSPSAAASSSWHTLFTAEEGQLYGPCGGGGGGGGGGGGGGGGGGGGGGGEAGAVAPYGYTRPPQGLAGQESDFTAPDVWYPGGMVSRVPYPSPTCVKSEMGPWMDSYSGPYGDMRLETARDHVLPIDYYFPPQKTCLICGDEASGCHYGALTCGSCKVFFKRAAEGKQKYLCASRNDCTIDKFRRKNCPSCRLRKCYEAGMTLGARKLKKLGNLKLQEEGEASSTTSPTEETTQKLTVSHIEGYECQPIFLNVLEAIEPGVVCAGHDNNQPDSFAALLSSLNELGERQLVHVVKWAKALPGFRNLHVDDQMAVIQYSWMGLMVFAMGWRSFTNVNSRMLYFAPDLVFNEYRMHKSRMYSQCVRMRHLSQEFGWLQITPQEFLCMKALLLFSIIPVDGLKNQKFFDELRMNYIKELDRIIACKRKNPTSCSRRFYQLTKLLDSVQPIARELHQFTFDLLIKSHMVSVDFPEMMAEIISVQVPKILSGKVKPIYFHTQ
Method: as §1, §2

[4] = target: T4, PPARγ (Homo sapiens, UniProt P37231); assay: Chimeric Gal4DBD-PPARγLBD receptor / UASg-luciferase reporter gene assay in HeLa cells
T4 construct: expressed in transfected cells; host or cells: HeLa
T4 sequence (P37231 238-503 limits assumed): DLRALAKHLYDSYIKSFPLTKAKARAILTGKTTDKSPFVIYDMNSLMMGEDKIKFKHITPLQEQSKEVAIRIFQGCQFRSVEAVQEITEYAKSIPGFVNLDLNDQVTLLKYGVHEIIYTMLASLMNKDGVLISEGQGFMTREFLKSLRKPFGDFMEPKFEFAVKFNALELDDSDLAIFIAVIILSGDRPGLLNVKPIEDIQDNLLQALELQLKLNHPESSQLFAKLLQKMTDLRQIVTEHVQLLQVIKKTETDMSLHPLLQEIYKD
From the text: as §3

[5] = GW9662 0.1 ×10^−6M (first line)
[6] = GW9662 0.1 ×10^−6M (second line, r12)

Compound: 3′,7-Dihydroxy-4′-methoxyisoflavone [calycosin]
increase of the activity of maximal doses of PR agonist [1]: 3 fold | increase of the activity of maximal doses of PPARα agonist [2]: 7 fold | increase of the activity of maximal doses of AR agonist ([3]; with dihydrotestosterone 1×10^−9M): 3 fold

Compound: CCCCC/C=C/C=C1/C(=O)C=C[C@@H]1C/C=C\CCCC(=O)O [Compound 15DPGJ2, 15-deoxy-δ12,14, Prostaglandin J2, reference compound]
EC50 (PPARγ activity) ([4]; FIG. 1A, HeLa cells): 0.5 mg/L (≈ 1.58 µM)

Luciferase activity ± SEM (% ciglitazone 10 × 10^−6 M), substance alone ([4]; 0.1 ×10^−6 g/mL): 15.4 ± 0.81% | Luciferase activity ± SEM (% ciglitazone 10 × 10^−6 M), substance alone ([4]; 0.3 ×10^−6 g/mL): 21.7 ± 1.52% | Luciferase activity ± SEM (% ciglitazone 10 × 10^−6 M), substance alone ([4]; 1.0 ×10^−6 g/mL): 55.3 ± 7.99% | Luciferase activity ± SEM (% ciglitazone 10 × 10^−6 M), substance alone ([4]; 3.0 ×10^−6 g/mL): 100 ± 6.13% | Luciferase activity ± SEM (% ciglitazone 10 × 10^−6 M), HQ extract + ciglitazone 10 × 10^−6 M ([4]; HQ extract 0.0 ×10^−6 g/mL (ciglitazone 10 × 10^−6 M only)): 100 ± 2.91%
Compound: CC1(COc2ccc(CC3SC(=O)NC3=O)cc2)CCCCC1 (stereo not shown) [ciglitazone, reference compound]

Compound: O=c1c(-c2ccc(O)cc2)coc2cc(O)cc(O)c12 [genistein]
Luciferase activity (Fold ± SE), PPAR activity at fixed dose ([4]; GW9662 0 ×10^−6M, fixed doses: HQ Water extract 8 × 10^−6 g/mL, HQ DCM extract 50 × 10^−6 g/mL, Formononetin, Genistein 10 × 10^−6 M): 7.37 ± 0.128 Fold | Luciferase activity (Fold ± SE), PPAR activity at fixed dose ([4]; GW9662 0.3 ×10^−6M, fixed doses): 93.6 ± 2.47 Fold | Luciferase activity (Fold ± SE), PPAR activity at fixed dose ([4]; GW9662 1 ×10^−6M, fixed doses): 83.9 ± 4.37 Fold | Luciferase activity (Fold ± SE), PPAR activity at fixed dose ([4]; GW9662 3 ×10^−6M, fixed doses): 82.5 ± 2.63 Fold | Luciferase activity (Fold ± SE), PPAR activity at fixed dose ([4]; GW9662 10 ×10^−6M, fixed doses): 67.4 ± 1.52 Fold | Luciferase activity (Fold ± SE), PPAR activity at fixed dose ([4]; GW9662 30 ×10^−6M, fixed doses): 39.5 ± 0.403 Fold | intrinsic agonistic AR activity ([3]; 0.1 to 30×10^−6M, no dihydrotestosterone): does not display any intrinsic agohistic AR activity | further increase of the activity of saturating doses of dihydrotestosterone ([3]; dihydrotestosterone 10×10^−9M, FIG. 2A): 5 fold | effect on the activity of dihydrotestosterone on AR ([3]; fixed 3×10^−6 M, dihydrotestosterone 0.01 to 10×10^−9M, FIG. 2B): augmented

Luciferase activity (% Pioglitazone 30 × 100^−6M ± SE), Piogliltazone (30 × 10^−6M) [4, 5]: 97 ± 23.8% | Luciferase activity (% Pioglitazone 30 × 100^−6M ± SE), Vehicle (DMSO) [4, 5]: 13.8 ± 0.207% | Luciferase activity (% Pioglitazone 30 × 100^−6M ± SE), Piogliltazone (30 × 10^−6M) [4, 6]: 114 ± 5% | Luciferase activity (% Pioglitazone 30 × 100^−6M ± SE), Vehicle (DMSO) [4, 6]: 13.8 ± 2.28% | Luciferase activity (% Pioglitazone 30 × 100^−6M ± SE), Piogliltazone (30 × 10^−6M) ([4]; GW9662 1 ×10^−6M): 77.2 ± 11.4% | Luciferase activity (% Pioglitazone 30 × 100^−6M ± SE), Vehicle (DMSO) ([4]; GW9662 1 ×10^−6M): 23.5 ± 2.74% | Luciferase activity (% Pioglitazone 30 × 100^−6M ± SE), Piogliltazone (30 × 10^−6M) ([4]; GW9662 10 ×10^−6M): 40.6 ± 12.3% | Luciferase activity (% Pioglitazone 30 × 100^−6M ± SE), Vehicle (DMSO) ([4]; GW9662 10 ×10^−6M): 39.3 ± 4.38% | PPARγ activity on its own ([4]; Table 12): weak PPARγ agonistic activity | doses that inhibited the PPARγ effects of pioglitazone ([4]; with pioglitazone 30 × 10^−6M, dose-dependent): above 1 ×10^−6M
Compound: O=C(Nc1ccccc1)c1cc([N+](=O)[O-])ccc1Cl [GW9662, reference compound]
